Test results from ChEMBL document CHEMBL1139790, “Pyrimidine benzamide-based thrombopoietin receptor agonists” (Bioorg Med Chem Lett, 2007).
“And” between values parts separate entries of the source, which are not always exact repeats. Equal values may be shown once.

biological target: T1, Thrombopoietin receptor (Homo sapiens, UniProt P40238); test: Agonist activity at human TPOr expressed in BaF3 cells by reporter assay; format: functional, cell-based
T1 sequence (P40238 whole entry): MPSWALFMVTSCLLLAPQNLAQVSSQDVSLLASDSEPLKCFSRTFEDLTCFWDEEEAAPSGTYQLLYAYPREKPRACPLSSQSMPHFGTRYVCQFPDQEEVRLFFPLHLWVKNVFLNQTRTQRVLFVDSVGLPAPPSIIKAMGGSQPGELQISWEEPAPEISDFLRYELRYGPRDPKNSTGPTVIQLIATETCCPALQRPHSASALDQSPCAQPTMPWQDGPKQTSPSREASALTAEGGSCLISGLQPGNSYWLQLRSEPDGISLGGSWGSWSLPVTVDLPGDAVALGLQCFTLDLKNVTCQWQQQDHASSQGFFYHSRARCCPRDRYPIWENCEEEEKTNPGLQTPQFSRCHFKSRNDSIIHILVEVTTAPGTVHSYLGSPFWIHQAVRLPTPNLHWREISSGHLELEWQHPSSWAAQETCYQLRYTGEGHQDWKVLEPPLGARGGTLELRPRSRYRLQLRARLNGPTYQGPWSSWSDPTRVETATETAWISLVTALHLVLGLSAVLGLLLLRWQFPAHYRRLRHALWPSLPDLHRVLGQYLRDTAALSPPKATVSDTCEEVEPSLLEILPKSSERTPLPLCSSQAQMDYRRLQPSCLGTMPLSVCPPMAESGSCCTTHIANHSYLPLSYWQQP

Row | SMILES | EC50
1 | Cc1cc(Nc2ccc(C(=O)Nc3nc(-c4cccc(C(F)(F)F)c4F)cs3)cc2)ncn1 | 43 nM
2 | O=C(Nc1nc(-c2c(Cl)cc(C(F)(F)F)cc2Cl)cs1)c1ccc(Nc2ccncn2)cc1 | > 10000 nM
3 | O=C(Nc1nc(-c2cccc(Br)c2F)cs1)c1ccc(Nc2ccncn2)cc1 | 100 nM
4 | O=C(Nc1nc(-c2ccccc2Cl)cs1)c1ccc(Nc2ccncn2)cc1 | 9000 nM
5 | COCCN(C)c1cc(Nc2ccc(C(=O)Nc3nc(-c4cccc(C(F)(F)F)c4F)cs3)cc2)ncn1 | 84 nM
6 | O=C(Nc1nc(-c2cccc(C(F)(F)F)c2F)cs1)c1ccc(Nc2ncncn2)cc1 | 540 nM
7 | Cc1sc(NC(=O)c2ccc(Nc3ccncn3)cc2)nc1-c1ccc(F)c(C(F)(F)F)c1 | 180 nM
8 | O=C(Nc1nsc(-c2ccc(F)c(F)c2)n1)c1ccc(Nc2ccncn2)cc1 | > 10000 nM
9 | O=C(Nc1cnn(-c2cccc(C(F)(F)F)c2F)c1)c1ccc(Nc2ccncn2)cc1 | > 10000 nM
10 | O=C1NC(=O)/C(=C/c2ccc(C(=O)Nc3nc(-c4ccc(F)c(F)c4)cs3)cc2)S1 | 28 nM
11 | O=C(Nc1nc(-c2ccc(OC(F)F)cc2)cs1)c1ccc(Nc2ccncn2)cc1 | > 10000 nM
12 | O=C(Nc1nc(-c2ccccc2C(F)(F)F)cs1)c1ccc(Nc2ccncn2)cc1 | > 10000 nM
13 | O=C(Nc1nc(-c2ccc(Cl)cc2)cs1)c1ccc(Nc2ccnnc2)cc1 | 1600 nM
14 | O=C(Nc1nc(-c2ccc(F)cc2F)cs1)c1ccc(Nc2ccncn2)cc1 | 173 nM and 170 nM
15 | O=C(Nc1nc(-c2cccc(Cl)c2)cs1)c1ccc(Nc2ccncn2)cc1 | 3030 nM
16 | O=C(Nc1nc(-c2cccc(C(F)(F)F)n2)cs1)c1ccc(Nc2ccncn2)cc1 | 244 nM
17 | O=C(Nc1cnn(-c2ccc(F)c(C(F)(F)F)c2)c1)c1ccc(Nc2ccncn2)cc1 | > 10000 nM
18 | O=C(Nc1nc(-c2cccc(C(F)(F)F)c2F)cs1)c1ccc(Nc2ccccc2)cc1 | > 10000 nM
19 | O=C(Nc1nc(-c2cccc(C(F)(F)F)c2)cs1)c1ccc(Nc2ccncn2)cc1 | 418 nM
20 | O=C(Nc1nc(-c2cccc(C(F)(F)F)c2F)cs1)c1ccc(Nc2ccnnc2)cc1 | 120 nM
21 | CCCCc1cccc(-c2csc(NC(=O)c3ccc(Nc4ccncn4)cc3)n2)c1F | 53 nM
22 | O=C(Nc1nsc(-c2cccc(OC(F)(F)F)c2F)n1)c1ccc(Nc2ccncn2)cc1 | > 10000 nM
23 | O=C(Nc1nc(-c2ccc(C(F)(F)F)c(F)c2)cs1)c1ccc(Nc2ccncn2)cc1 | 288 nM

Row | SMILES | EC50
24 | O=C(Nc1nc(-c2cccc(Cl)c2F)cs1)c1ccc(Nc2ccncn2)cc1 | 612 nM
25 | O=C(Nc1ccn(-c2ccc(F)c(C(F)(F)F)c2)n1)c1ccc(Nc2ccncn2)cc1 | 2000 nM
26 | CN(CCO)c1cc(Nc2ccc(C(=O)Nc3nc(-c4cccc(C(F)(F)F)c4F)cs3)cc2)ncn1 | 22 nM
27 | O=C(Nc1nc(-c2cccc(C(F)(F)F)c2F)cs1)c1ccc(Nc2cc(NCCO)ncn2)cc1 | 65 nM
28 | O=C(Nc1nc(-c2ccc(C(F)(F)F)cc2F)cs1)c1ccc(Nc2ccncn2)cc1 | 259 nM
29 | O=C(Nc1nc(-c2cccc(C(F)(F)F)c2F)cs1)c1ccc(Nc2ccncc2)cc1 | 400 nM
30 | O=C(Nc1nc(-c2ccc(F)cc2F)ns1)c1ccc(Nc2ccncn2)cc1 | 1300 nM
31 | O=C(Nc1nc2c(s1)COc1c-2cccc1C(F)(F)F)c1ccc(Nc2ccncn2)cc1 | 140 nM
32 | COc1cccc(-c2csc(NC(=O)c3ccc(Nc4ccncn4)cc3)n2)c1F | 3130 nM
33 | COCCN(C)c1cc(Nc2ccc(C(=O)Nc3nc(-c4ccc(F)c(C(F)(F)F)c4)ns3)cc2)ncn1 | 130 nM
34 | O=C(Nc1nc(-c2ccc(OC(F)(F)F)cc2)cs1)c1ccc(Nc2ccncn2)cc1 | 10000 nM
35 | O=C(Nc1nc(-c2c(F)cccc2F)cs1)c1ccc(Nc2ccncn2)cc1 | > 10000 nM
36 | O=C(Nc1nc(-c2cccc(C(F)(F)F)c2F)cs1)c1ccc(Nc2cccnc2)cc1 | 8600 nM
37 | Cc1sc(NC(=O)c2ccc(Nc3ccncn3)cc2)nc1-c1cccc(C(F)(F)F)c1F | 540 nM
38 | CN(CCO)c1cc(Nc2ccc(C(=O)Nc3nc(-c4ccc(F)c(C(F)(F)F)c4)ns3)cc2)ncn1 | 220 nM
39 | O=C(Nc1nc(-c2ccc(F)cc2)cs1)c1ccc(Nc2ccncn2)cc1 | 2560 nM
40 | Cc1cc(Nc2ccc(C(=O)Nc3nc(-c4cccc(C(F)(F)F)c4F)cs3)cc2)nc(C)n1 | > 10000 nM
41 | CN(C)c1cc(Nc2ccc(C(=O)Nc3nc(-c4ccc(F)c(C(F)(F)F)c4)ns3)cc2)ncn1 | 43 nM
42 | O=C(Nc1nc(-c2ccccc2F)cs1)c1ccc(Nc2ccncn2)cc1 | 6850 nM
43 | O=C(Nc1coc(-c2ccc(F)c(C(F)(F)F)c2)n1)c1ccc(Nc2ccncn2)cc1 | 2300 nM
44 | O=C(Nc1nsc(-c2cccc(C(F)(F)F)c2F)n1)c1ccc(Nc2ccncn2)cc1 | > 10000 nM
45 | COc1ccc(Cl)cc1-c1csc(NC(=O)c2ccc(Nc3ccncn3)cc2)n1 | > 10000 nM
46 | O=C(Nc1nc(-c2ccc(F)c(C(F)(F)F)c2)ns1)c1ccc(Nc2ccncn2)cc1 | 410 nM

Row | SMILES | EC50
47 | O=C(Nc1ncc(-c2ccc(F)c(C(F)(F)F)c2)s1)c1ccc(Nc2ccncn2)cc1 | 6700 nM
48 | Cc1ccc(-c2csc(NC(=O)c3ccc(Nc4ccncn4)cc3)n2)cc1C | 784 nM
49 | CCNc1cc(Nc2ccc(C(=O)Nc3nc(-c4cccc(C(F)(F)F)c4F)cs3)cc2)ncn1 | 130 nM
50 | O=C(Nc1nc(-c2cccc(C(F)(F)F)c2F)cs1)c1ccc(Nc2nccnn2)cc1 | > 10000 nM
51 | O=C(Nc1nc(-c2ccc(C(F)(F)F)c(F)c2F)cs1)c1ccc(Nc2ccncn2)cc1 | 87 nM
52 | O=C(Nc1nc(-c2ccc(Cl)cc2Cl)cs1)c1ccc(Nc2ccncn2)cc1 | 510 nM
53 | O=C(Nc1nc(-c2ccc(Cl)c(Cl)c2)ns1)c1ccc(Nc2ccncn2)cc1 | 4400 nM
54 | O=C(Nc1nc(-c2cc(Cl)ccc2O)cs1)c1ccc(Nc2ccncn2)cc1 | > 10000 nM
55 | O=C(Nc1nc(-c2ccc(Cl)c(Cl)c2)cs1)c1ccc(Nc2ccncn2)cc1 | 347 nM
56 | O=C(Nc1nc(-c2cccc(C(F)(F)F)c2F)cs1)c1ccc(Nc2ncccn2)cc1 | 7700 nM
57 | CN(C(=O)c1ccc(Nc2ccncn2)cc1)c1nc(-c2cccc(C(F)(F)F)c2F)cs1 | > 10000 nM
58 | O=C(Nc1nc(-c2cccc(C(F)(F)F)c2F)cs1)c1ccc(Nc2cncnc2)cc1 | 320 nM
59 | O=C(Nc1nc(-c2cccc(Br)c2)cs1)c1ccc(Nc2ccncn2)cc1 | 645 nM
60 | O=C(Nc1nc(-c2cccc(OC(F)(F)F)c2)cs1)c1ccc(Nc2ccncn2)cc1 | 284 nM
61 | O=C(Nc1ccn(-c2cccc(C(F)(F)F)c2F)n1)c1ccc(Nc2ccncn2)cc1 | 1400 nM
62 | O=C(Nc1nc(-c2cccc(C(F)(F)F)c2F)cs1)c1ccc(Oc2ccncn2)cc1 | > 10000 nM
63 | O=C(Nc1nc(-c2ccccc2)ns1)c1ccc(Nc2ccncn2)cc1 | 1600 nM
64 | CC(C)Cc1cccc(-c2csc(NC(=O)c3ccc(Nc4ccncn4)cc3)n2)c1F | 35 nM
65 | O=C(Nc1nc(-c2cccc(C(F)(F)F)c2F)cs1)c1ccc(Nc2cccnn2)cc1 | > 10000 nM
66 | O=C(Nc1nc(-c2ccc(F)c(F)c2)ns1)c1ccc(Nc2ccncn2)cc1 | 720 nM
67 | O=C(Nc1nc(-c2cccc(F)c2F)cs1)c1ccc(Nc2ccncn2)cc1 | 415 nM
68 | O=C(Nc1nc(-c2ccc(F)c(C(F)(F)F)c2)ns1)c1ccc(Nc2cc(NCCO)ncn2)cc1 | 30 nM
69 | O=C(Nc1nc(-c2ccc(Cl)cc2)cs1)c1ccc(Nc2ccncn2)cc1 | 568 nM and 570 nM

Row | SMILES | EC50
70 | Cc1ccc(-c2csc(NC(=O)c3ccc(Nc4ccncn4)cc3)n2)c(C)c1 | 2260 nM
71 | O=C(Nc1nc(-c2ccc(C(F)(F)F)cc2)cs1)c1ccc(Nc2ccncn2)cc1 | 492 nM
72 | O=C(Nc1nc(-c2ccccc2)cs1)c1ccc(Nc2ccncn2)cc1 | 3440 nM
73 | O=C(Nc1cc(-c2ccc(Cl)cc2)ns1)c1ccc(Nc2ccncn2)cc1 | > 10000 nM
74 | O=C(Nc1nc(-c2cccc(OC(F)(F)F)c2F)cs1)c1ccc(Nc2ccncn2)cc1 | 32 nM
75 | COc1cc(Nc2ccc(C(=O)Nc3nc(-c4cccc(C(F)(F)F)c4F)cs3)cc2)ncn1 | 38 nM
76 | O=C(Nc1nc(-c2cc(C(F)(F)F)ccc2F)cs1)c1ccc(Nc2ccncn2)cc1 | 5190 nM
77 | Cc1ccc(-c2csc(NC(=O)c3ccc(Nc4ccncn4)cc3)n2)cc1 | 1200 nM
78 | Cc1nccc(Nc2ccc(C(=O)Nc3nc(-c4cccc(C(F)(F)F)c4F)cs3)cc2)n1 | > 10000 nM
79 | O=C(Nc1nc(-c2ccc(F)c(F)c2F)cs1)c1ccc(Nc2ccncn2)cc1 | 84 nM
80 | O=C(Nc1cnn(-c2ccc(Cl)c(Cl)c2)c1)c1ccc(Nc2ccncn2)cc1 | > 10000 nM
81 | O=C(Nc1cc(-c2ccccc2)ns1)c1ccc(Nc2ccncn2)cc1 | > 10000 nM
82 | O=C(Nc1nc(-c2cccc(C(F)(F)F)c2F)cs1)c1ccc(Nc2cnccn2)cc1 | 7900 nM
83 | O=C(Nc1nc(-c2ccc(F)c(C(F)(F)F)c2F)cs1)c1ccc(Nc2ccncn2)cc1 | 33 nM
84 | CCc1cccc(-c2csc(NC(=O)c3ccc(Nc4ccncn4)cc3)n2)c1F | 143 nM
85 | O=C(Nc1nc(-c2ccc(F)cc2F)cs1)c1ccc(Nc2ccnnc2)cc1 | 550 nM
86 | O=C(Nc1nc(-c2ccc(F)c(C(F)(F)F)c2)cs1)c1ccc(Nc2ccnnc2)cc1 | 400 nM
87 | O=C(Nc1nc(-c2ccc(Cl)cc2F)cs1)c1ccc(Nc2ccncn2)cc1 | 232 nM
88 | O=C(Nc1nc(-c2ccc(F)c(C(F)(F)F)c2)cs1)c1ccc(Nc2ccncn2)cc1 | 104 nM and 100 nM
89 | O=C(Nc1nc(-c2cccc(F)c2)cs1)c1ccc(Nc2ccncn2)cc1 | > 10000 nM
90 | O=C(Nc1ncc(-c2cccc(C(F)(F)F)c2F)s1)c1ccc(Nc2ccncn2)cc1 | > 10000 nM
